In patent publication US10077261B2, “Imidazolin-5-one derivative useful as FASN inhibitors for the treatment of cancer” (Janssen Pharmaceutica NV, priority 2012, dated 2018):

Experiments:
[1] = system: A2780 ovarian cells; experiment: A2780 ovarian cell proliferation assay in lipid reduced medium, with palmitate (MTT); assay type: cell-based; conditions: Homo sapiens, A2780, 96 h; read-out: pIC50 A2780 Ovarian Cell, With Palmitate (converted)
In short: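 In this palmitate-supplemented format, compound dilutions (30 μM down to 0.01 μM) are added to cells in lipid-reduced serum with 25 μM palmitate, 0.2% fatty-acid-free BSA and 0.25% ethanol. After four days (96 h) MTT absorbance at 544 nm is recorded and fitted by minimum sum of squares.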

[2] = system: A2780 ovarian cells; experiment: A2780 ovarian cell proliferation assay in lipid reduced medium, without palmitate (MTT); assay type: cell-based; conditions: Homo sapiens, A2780, 96 h; read-out: pIC50 A2780 Ovarian Cell, Without Palmitate (converted)
[3] = biological target: T1, hFASN enzyme (full length) (Homo sapiens, UniProt P49327); experiment: Fatty Acid Synthase (FASN) inhibition scintillation proximity assay; assay type: biochemical; conditions: for inhibition at 10 µM: read-out: Human FASN % inhibition @ 10 μM, 10 μM test compound; for IC50: read-out: Human FASN pIC50 (converted)
T1 construct: 10 μL hFASN enzyme (full length, 300 ng, purified in house); made in house
T1 sequence (P49327 whole entry): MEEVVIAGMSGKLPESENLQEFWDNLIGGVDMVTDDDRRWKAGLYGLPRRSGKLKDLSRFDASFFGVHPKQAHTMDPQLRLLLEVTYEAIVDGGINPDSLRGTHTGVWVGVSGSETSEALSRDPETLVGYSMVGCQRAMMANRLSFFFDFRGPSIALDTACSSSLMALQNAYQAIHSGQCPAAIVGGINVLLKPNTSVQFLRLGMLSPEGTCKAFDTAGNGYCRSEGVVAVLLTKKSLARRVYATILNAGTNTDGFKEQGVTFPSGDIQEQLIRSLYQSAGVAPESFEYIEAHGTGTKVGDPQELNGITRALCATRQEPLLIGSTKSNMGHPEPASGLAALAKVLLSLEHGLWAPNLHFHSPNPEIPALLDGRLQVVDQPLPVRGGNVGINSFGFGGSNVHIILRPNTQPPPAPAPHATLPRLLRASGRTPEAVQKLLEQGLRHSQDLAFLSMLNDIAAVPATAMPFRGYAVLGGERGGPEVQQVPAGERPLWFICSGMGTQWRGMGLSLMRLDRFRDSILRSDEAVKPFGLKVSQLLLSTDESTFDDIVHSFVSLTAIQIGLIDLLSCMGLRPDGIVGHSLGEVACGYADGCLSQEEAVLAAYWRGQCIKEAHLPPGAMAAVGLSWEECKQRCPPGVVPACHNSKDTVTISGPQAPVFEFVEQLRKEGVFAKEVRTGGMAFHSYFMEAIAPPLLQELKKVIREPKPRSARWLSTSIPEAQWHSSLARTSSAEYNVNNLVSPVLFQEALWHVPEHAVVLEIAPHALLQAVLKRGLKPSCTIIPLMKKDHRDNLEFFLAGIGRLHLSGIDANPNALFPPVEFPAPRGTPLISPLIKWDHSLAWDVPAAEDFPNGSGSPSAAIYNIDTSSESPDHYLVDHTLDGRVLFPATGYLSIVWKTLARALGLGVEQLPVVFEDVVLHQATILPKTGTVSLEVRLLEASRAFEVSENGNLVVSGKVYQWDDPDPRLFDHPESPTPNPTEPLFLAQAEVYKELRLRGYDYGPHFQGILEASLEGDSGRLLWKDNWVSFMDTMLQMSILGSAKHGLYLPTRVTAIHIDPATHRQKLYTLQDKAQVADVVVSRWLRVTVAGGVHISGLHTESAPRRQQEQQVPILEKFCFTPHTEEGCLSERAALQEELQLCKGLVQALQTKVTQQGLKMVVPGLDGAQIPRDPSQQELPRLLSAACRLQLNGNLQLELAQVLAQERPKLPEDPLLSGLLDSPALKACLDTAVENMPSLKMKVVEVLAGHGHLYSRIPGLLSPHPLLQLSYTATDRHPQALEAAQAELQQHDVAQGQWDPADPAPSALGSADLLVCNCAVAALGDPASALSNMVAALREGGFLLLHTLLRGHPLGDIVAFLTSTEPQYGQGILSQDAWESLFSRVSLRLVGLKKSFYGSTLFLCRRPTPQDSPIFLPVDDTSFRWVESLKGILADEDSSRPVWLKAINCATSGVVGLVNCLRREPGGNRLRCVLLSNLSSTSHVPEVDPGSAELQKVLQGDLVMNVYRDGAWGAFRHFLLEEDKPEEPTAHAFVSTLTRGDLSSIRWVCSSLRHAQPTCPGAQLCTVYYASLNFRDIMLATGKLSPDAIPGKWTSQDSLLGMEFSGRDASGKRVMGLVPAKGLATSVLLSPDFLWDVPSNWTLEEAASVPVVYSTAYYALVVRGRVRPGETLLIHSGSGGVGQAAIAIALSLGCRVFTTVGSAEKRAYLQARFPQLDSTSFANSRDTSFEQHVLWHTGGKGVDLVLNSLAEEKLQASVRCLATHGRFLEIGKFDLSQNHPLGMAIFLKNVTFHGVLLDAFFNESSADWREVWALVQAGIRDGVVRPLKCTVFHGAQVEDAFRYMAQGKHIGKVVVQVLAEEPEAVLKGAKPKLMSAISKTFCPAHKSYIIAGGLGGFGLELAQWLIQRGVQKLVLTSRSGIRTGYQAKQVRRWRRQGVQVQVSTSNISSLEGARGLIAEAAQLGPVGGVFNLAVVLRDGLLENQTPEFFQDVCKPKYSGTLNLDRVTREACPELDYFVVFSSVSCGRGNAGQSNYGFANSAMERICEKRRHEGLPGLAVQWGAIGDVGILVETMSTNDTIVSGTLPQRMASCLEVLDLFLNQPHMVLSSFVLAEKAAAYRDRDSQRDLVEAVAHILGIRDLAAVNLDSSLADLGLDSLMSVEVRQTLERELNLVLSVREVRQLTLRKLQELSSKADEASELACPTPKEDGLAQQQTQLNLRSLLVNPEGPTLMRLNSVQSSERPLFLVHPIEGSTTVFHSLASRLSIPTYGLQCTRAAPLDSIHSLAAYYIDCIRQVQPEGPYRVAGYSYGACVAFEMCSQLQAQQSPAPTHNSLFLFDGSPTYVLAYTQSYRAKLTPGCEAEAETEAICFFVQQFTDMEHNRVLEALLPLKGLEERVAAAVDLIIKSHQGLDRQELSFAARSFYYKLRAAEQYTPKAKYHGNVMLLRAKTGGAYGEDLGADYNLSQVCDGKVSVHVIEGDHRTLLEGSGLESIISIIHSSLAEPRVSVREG
In short: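 Read-out relies on hydrophobic ³H-palmitate product, formed from ³H-acetyl-CoA and malonyl-CoA, binding streptavidin imaging beads, measured at 610±20 nm after at least 24 h. Full-length enzyme (300 ng) in phosphate buffer pH 7.5 with DTT; eight compound concentrations, 0.01–30 μM.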

SMILES | IC50 [1] | IC50 [2] | inhibition at 10 µM [3] | IC50 [3]
COC(=O)N1CC2(C1)N=C(c1ccc(-c3ccc4occc4c3)cc1)N(C[C@@H]1CCN(C(=O)c3nccs3)C1)C2=O [compound 957, (R)-methyl 6-(4-(benzofuran-5-yl)phenyl)-8-oxo-7-((1-(thiazole-2-carbonyl)pyrrolidin-3-yl)methyl)-2,5,7-triazaspiro[3.4]oct-5-ene-2-carboxylate] | > 10 µM | > 10 µM | 13% | > 10 µM
O=C(C1CC1)N1CC[C@@H](CN2C(=O)C3(CC3)N=C2c2ccc(-c3ccc(O)cc3)cc2)C1 [compound 64, 6-{[(3R)-1-(Cyclopropylcarbonyl)pyrrolidin-3-yl]methyl}-5-(4′-hydroxybiphenyl-4-yl)-4,6-diazaspiro[2.4]hept-4-en-7-one] | > 10 µM | 0.631 µM | 92.9% | 0.708 µM
Cn1cc(-c2ccc(-c3ccc(C4=NC5(CCOC5)C(=O)N4CC4CN(C(=O)C(F)(F)F)C4)cc3)cc2)cn1 (stereo not drawn) [compound 899, 2-(4′-(1-methyl-1H-pyrazol-4-yl)-[1,1′-biphenyl]-4-yl)-3-((1-(2,2,2-trifluoroacetyl)azetidin-3-yl)methyl)-7-oxa-1,3-diazaspiro[4.4]non-1-en-4-one] | > 10 µM | > 10 µM | -10% | > 10 µM
COC(=O)N1CC[C@@H](CN2C(=O)C3(CCOC3)N=C2c2ccc(-c3ccc4cccnc4c3)cc2)C1 (stereo partly drawn) [compound 683, Methyl (3S)-{[4-oxo-2-(4-quinolin-7-ylphenyl)-7-oxa-1,3-diazaspiro[4.4]non-1-en-3-yl]methyl}pyrrolidin-1-carboxylate] | > 10 µM | > 10 µM | 63% | 4.17 µM
Cc1ccc2c(-c3ccc(C4=NC5(CC5)C(=O)N4CC4CN(C(=O)C5CC5)C4)cc3)cccc2n1 [compound 790, 6-((1-(cyclopropanecarbonyl)azetidin-3-yl)methyl)-5-(4-(2-methy7lquinolin-5-yl)phenyl)-4,6-diazaspiro[2.4]jept-4-en-7-one] | > 10 µM | > 10 µM | 47% | > 10 µM
Cc1cc(-c2ccc(C3=NC4(CC4)C(=O)N3CC3CN(C(=O)C4CC4)C3)cc2)nc2cc(Br)ccc12 [compound 791, 5-(4-(7-bromo-4-methylquinolin-2-yl)phenyl)-6-((1-(cyclopropanecarbonyl)azetidin-3-yl)methyl)4,6-diazaspiro[2.4]hept-4-en-7-one] | > 6.17 µM | > 6.17 µM | -2% | > 10 µM
Cc1cc(-c2ccc(C3(C#N)CC3)cc2F)ccc1C1=NC2(CC2)C(=O)N1CC1CN(C(=O)C2(C)CC2)C1 [compound 593] | 9.55 µM | 6.76 µM | 56% | 7.08 µM
Cc1cc(-c2ccc3ccc(C(F)(F)F)nc3c2)ccc1C1=NC2(CC2)C(=O)N1CC1CN(C(=O)C2(C)CC2)C1 [compound 620, 6-({1-[(1-Methylcyclopropyl)carbonyl]azetidin-3-yl}methyl)-5-{2-methyl-4-[2-(trifluoromethyl)quinolin-7-yl]phenyl}-4,6-diazaspiro[2.4]hept-4-en-7-one] | > 10 µM | ~4.79 µM | 71% | 3.98 µM
Cc1cc(-c2cc(C)c3ccc(Br)cc3n2)ccc1C1=NC2(CC2)C(=O)N1CC1CN(C(=O)C2(C)CC2)C1 [compound 605, 5-[4-(7-Bromo-4-methylquinolin-2-yl)-2-methylphenyl]-6-({1-[(1-methylcyclopropyl)carbonyl]azetidin-3-yl}methyl)-4,6-diazaspiro[2.4]hept-4-en-7-one] | 6.31 µM | 4.79 µM | 62% | 6.61 µM
CC(C)n1ccc2cc(-c3ccc(C4=NC5(CC5)C(=O)N4CC4CN(C(=O)C5CC5)C4)c(F)c3)ccc21 [compound 525, 6-{[1-(Cyclopropylcarbonyl)azetidin-3-yl]methyl}-5-{2-fluoro-4-[1-(1-methylethyl)-1H-indol-5-yl]phenyl}-4,6-diazaspiro[2.4]hept-4-en-7-one] | > 10 µM | 4.9 µM | 84% | 1.05 µM
Cc1cc(-c2cc(Cl)c3cn[nH]c3c2)ccc1C1=NC2(CC2)C(=O)N1CC1CN(C(=O)C2CC2)C1 [compound 629, 5-[4-(4-Chloro-1H-indazol-6-yl)-2-methylphenyl]-6-{[1-(cyclopropylcarbonyl)azetidin-3-yl]methyl}-4,6-diazaspiro[2.4]hept-4-en-7-one] | > 10 µM | 7.76 µM | 55% | 7.41 µM
CC(C)n1ncc2ccc(-c3ccc(C4=NC5(CC5)C(=O)N4CC4CN(C(=O)C5CC5)C4)cc3)cc21 [compound 550, 6-{[1-(Cyclopropylcarbonyl)azetidin-3-yl]methyl}-5-{4-[1-(1-methylethyl)-1H-indazol-6-yl]phenyl}-4,6-diazaspiro[2.4]hept-4-en-7-one] | ~10 µM | 3.47 µM | 80% | 1.82 µM
Cc1cc(-c2ccc3c(C)cc(Cl)nc3c2)ccc1C1=NC2(CC2)C(=O)N1CC1CN(C(=O)C2(C)CC2)C1 [compound 624, 5-[4-(2-Chloro-4-methylquinolin-7-yl)-2-methylphenyl]-6-({1-[(1-methylcyclopropyl)carbonyl]azetidin-3-yl}methyl)-4,6-diazaspiro[2.4]hept-4-en-7-one] | 6.61 µM | 1.45 µM | 76% | 2.24 µM
Cc1ccc2ccc(-c3ccc(C4=NC5(CC5)C(=O)N4CC4CN(C(=O)C5CC5)C4)cc3)c(F)c2n1 [compound 561, 6-{[1-(Cyclopropylcarbonyl)azetidin-3-yl]methyl}-5-[4-(8-fluoro-2-methylquinolin-7-yl)phenyl]-4,6-diazaspiro[2.4]hept-4-en-7-one] | > 10 µM | > 10 µM | 56% | ~7.24 µM
Cn1ncc2cc(-c3ccc(C4=NC5(CCN(CCO)CC5)C(=O)N4C[C@@H]4CCN(C(=O)C5CC5)C4)cc3)ccc21 [compound 127, (R)-3-((1-(Cyclopropanecarbonyl)pyrrolidin-3-yl)methyl)-8-(2-hydroxyethyl)-2-(4-(1-methyl-1H-indazol-5-yl)phenyl)-1,3,8-triazaspiro[4.5]dec-1-en-4-one] | 7.59 µM | 0.933 µM | 107% | 0.49 µM
Cn1ncc2cc(-c3ccc(C4=NC5(CCOC5)C(=O)N4CC4CN(C(=O)C(F)(F)F)C4)cc3)ccc21 (stereo not drawn) [compound 937, 2-(4-(1-methyl-1H-indazol-5-yl)phenyl)-3-((1-(2,2,2-trifluoroacetyl)azetidin-3-yl)methyl)-7-oxa-1,3-diazaspiro[4.4]non-1-en-4-one] | > 10 µM | > 10 µM | -9% | > 10 µM
CC(C)c1ccc(-c2ccc(C3=NC4(CC4)C(=O)N3CC3CN(C(=O)C4CC4)C3)cc2)cn1 [compound 784, 6-((1-(cyclopropanecarbonyl)azetidin-3-yl)methyl)-5-(4-(6-isopropylpyridin-3-yl)phenyl)-4,6-diazaspiro[2.4]hept-4-en-7-one] | > 10 µM | 5.89 µM | 14% | > 10 µM
Cn1cc(-c2ccc(-c3ccc(C4=NC5(CCOC5)C(=O)N4CC4CCN(C(=O)C(F)(F)F)C4)cc3)cc2)cn1 (stereo not drawn) [compound 940, 2-(4′-(1-methyl-1H-pyrazol-4-yl)-[1,1′-biphenyl]-4-yl)-3-((1-(2,2,2-trifluoroacetyl)pyrrolidin-3-yl)methyl)-7-oxa-1,3-diazaspiro[4.4]non-1-en-4-one] | > 10 µM | > 10 µM | 33% | > 10 µM
CC(C)S(=O)(=O)c1cccc(-c2ccc(C3=NC4(CC4)C(=O)N3C[C@@H]3CCN(C(=O)C4CC4)C3)c(F)c2)c1 [compound 632, 6-{[(3R)-1-(Cyclopropylcarbonyl)pyrrolidin-3-yl]methyl}-5-{3-fluoro-3′-[(1-methylethyl)sulfonyl]biphenyl-4-yl}-4,6-diazaspiro[2.4]hept-4-en-7-one] | > 10 µM | ~2.4 µM | 70% | 2.75 µM
O=C(C1CC1)N1CC(CN2C(=O)C3(CC3)N=C2c2ccc(-c3cc4cnn(CCO)c4cc3F)cc2)C1 [compound 552, 6-{[1-(Cyclopropylcarbonyl)azetidin-3-yl]methyl}-5-{4-[6-fluoro-1-(2-hydroxyethyl)-1H-indazol-5-yl]phenyl}-4,6-diazaspiro[2.4]hep-t-4-en-7-one] | > 10 µM | 1.7 µM | 66% | 4.9 µM
O=C(N1CCCC1)N1CC[C@@H](CN2C(=O)C3(CCCC3)N=C2c2ccc(-c3ccc4occc4c3)cc2)C1 [compound 117, 2-[4-(1-Benzofuran-5-yl)phenyl]-3-{[(3S)-1-(pyrrolidin-1-ylcarbonyl)pyrrolidin-3-yl]methyl}-1,3-diazaspiro[4.4]non-1-en-4-one] | 9.12 µM | ~2.4 µM | 108% | 0.204 µM
